Test results from patent US9527894B2, “Polymutant tau protein variants and their use for recapitulating human tauopathies” (Universitaet Leipzig, priority 2011, dated 2016).

Legend:
[1] = test system: Hyper-tau expressing SH-SY5Y cells; assay: impedance spectroscopy based functional tau pathology in vitro screening assay (Hyper-tau cells); assay type: cell-based, human
Protocol: FIG. 6: Use of Hyper-tau cells for quantitative detection of compound efficiency. Taking the developed Hyper-tau cells, where pathology was induced by differentiation (20 nM staurosporine for 48 h) in comparison to the wildtype tau expressing cells (physiological condition) the efficiency of potential active pharmaceutical ingredients could be quantified.
Human neuroblastoma SH-SY5Y cells were grown in DMEM medium, supplemented with 15% fetal bovine serum (FBS), non-essential amino acids, glutamax and penicillin/streptomycine (Invitrogen). Differentiation of SH-SY5Y cells was induced by incubation of the SH-SY5Y cells with 20 nM stauropsprin (Sigma-Aldrich) for 48 hours. […]
Cells were cultured on self-developed 96-well arrays comprising a gold electrode at the culture surface. […] Impedance spectra were recorded with a self developed multiplexer unit for the 96-well arrays and an impedance Analyser Agilent 4294A (Agilent Technologies) with an alternating voltage of 10 mV with frequencies from 500 Hz to 5 MHz (0 mV bias between electrodes). For each experiment at least five wells were measured in replicate. All impedance magnitude spectra were analysed with a self-developed software IDAT (Impedance Data Analysing Tool). […]

[2] = test system: tau hyperphosphorylation; settings: artificial hyperphosphorylation using toxic compounds like okadaic acid; cited from earlier work
[3] = test system: tauopathy mouse model; settings: LeCorre et al. 2006, Selenica et al. 2007; cited from earlier work
[4] = test system: tau mutant expressing SH-SY5Y cells; assay: impedimetric detection of okadaic acid induced artificial hyperphosphorylation; assay type: cell-based, human; settings: 25 nM
Protocol: FIG. 4: Impedimetric detection of consequences by okadaic acid induced artificial hyperphosphorylation. […] (n=3, 2D-ANOVA, Bonferoni post-hoc test, *p<0.05, **p<0.01, ***p<0.001)
(§1) Human neuroblastoma SH-SY5Y cells were grown in DMEM medium, supplemented with 15% fetal bovine serum (FBS), non-essential amino acids, glutamax and penicillin/streptomycine (Invitrogen). Differentiation of SH-SY5Y cells was induced by incubation of the SH-SY5Y cells with 20 nM stauropsprin (Sigma-Aldrich) for 48 hours. For the appropriate experiments differentiated cells were treated with okadaic acid (Sigma-Aldrich) in a concentration of 25 nM or in case of reference compound testing with SRN-003-556 and AR-A014418, respectively.
Cells were cultured on self-developed 96-well arrays comprising a gold electrode at the culture surface. The SH-SY5Y cells were differentiated for 48 hours on the 96-well arrays. Impedance spectra were recorded with a self developed multiplexer unit for the 96-well arrays and an impedance Analyser Agilent 4294A (Agilent Technologies) with an alternating voltage of 10 mV with frequencies from 500 Hz to 5 MHz (0 mV bias between electrodes). For each experiment at least five wells were measured in replicate. All impedance magnitude spectra were analysed with a self-developed software IDAT (Impedance Data Analysing Tool). […]

[5] = test system: MC1-positive (abnormal conformation) tau in SH-SY5Y cell lines; assay: Western blot detection of abnormal tau conformation with MC1 antibody; assay type: cell-based, human; settings: undifferentiated neuroblastoma cell lines
Source text: FIG. 2: Abnormal tau conformation in polymutant tau cell lines. Poly-mutant tau variants were developed and, using those variants, poly-mutant neuroblastoma cell lines were produced. In those cell lines tau adopting an abnormal/pathological conformation under physiological conditions was observed (MC1 abnormal tau). […] Corroborating recent results that phosphorylation may stabilize abnormal conformation the amount of MC1-positive tau species could be decreased by treating the cells with a tau kinase inhibitor (SRN-003-556). […]
Cells were harvested and protease as well as phosphatase inhibitor cocktail (Sigma-Aldrich) was added. Proteins were extracted by sonification (Hielscher GmbH) and protein concentration was determined using the Roti-Nanoquant Assay (Carl-Roth GmbH). Laemmli sample buffer was added to 60 μg cell lysate. Samples were separated on 10% SDS-polyacrylamide gel and electro transferred onto polyvinylidene fluoride membranes and subsequently immunolabeled with anti-MC1 specific antibody (Peter Davis Department of Pathology, Albert Einstein College of Medicine, 1:100) at 4° C. over night. Secondary antibody was horseradish peroxidase conjugated (Dianova, 1:5000). Specific protein signals were detected using Chemiluminescence Detection Kit (MobiTec) and ChemiDoc-XRS (BioRad). […]

[6] = test system: SH-SY5Y cells; assay: impedimetric monitoring of differentiated wildtype and poly-mutant tau expressing cells; assay type: cell-based, human; settings: differentiated 48 h with 20 nM staurosporine, then monitored 24 h; compared to wildtype tau cells
Protocol: FIG. 5: Differentiation induces neurodegeneration in poly-mutant tau expressing SH-SY5Y cells. Differentiation of SH-SY5Y cells were induced by 48 h incubation with 20 nM staurosporine. Afterwards the cells were impedimetrically monitored for 24 h. […] (n=4, 2D-ANOVA, Bonferoni post-hoc test, *p<0.05, **p<0.01)
as §1
Cells were cultured on self-developed 96-well arrays comprising a gold electrode at the culture surface. The SH-SY5Y cells were differentiated for 48 hours on the 96-well arrays. Impedance spectra were recorded with a self developed multiplexer unit for the 96-well arrays and an impedance Analyser Agilent 4294A (Agilent Technologies) with an alternating voltage of 10 mV with frequencies from 500 Hz to 5 MHz (0 mV bias between electrodes). For each experiment at least five wells were measured in replicate. All impedance magnitude spectra were analysed with a self-developed software IDAT (Impedance Data Analysing Tool). IDAT calculates the impedance of cell-covered electrodes relative to electrodes without cells (relative impedance: (|Z|covered-|Z|cell-free)/|Z|cell-free×100%) and determine the and select the frequency where impedance change caused by the cell layer is maximum (for SH-SY5Y cells on 96-well array at about 100 kHz). […] Experiments were repeated at least three times. […]

[7] = test system: SH-SY5Y neuroblastoma cell lines; assay: formation of abnormal tau aggregates after differentiation (EGFP-tau imaging); assay type: cell-based, human; settings: after induction of differentiation (20 nM staurosporine), without toxic cofactors
Protocol: FIG. 1: Abnormal tau aggregation in a hyper-mutated tau expressing cell line.
as §1

## COc1ccc(CNC(=O)Nc2ncc([N+](=O)[O-])s2)cc1 [AR-A014418]
[1]; 6 h and 12 h, 0.1 nM-100 nM
  side effects detected by impedimetric monitoring: toxic effects
[1]; Hyper-tau cells differentiated with 20 nM staurosporine for 48 h, compared to wildtype tau cells
  therapeutic effect on Hyper-tau induced pathology (impedance): no therapeutic effect
[2]
  therapeutic effect in okadaic acid based tau pathology in vitro assays: therapeutic effect
[3]
  therapeutic effect in tauopathy mouse model: does not

## C=C1[C@@H](O)[C@@H]2O[C@]3(CC[C@H](/C=C/[C@@H](C)[C@@H]4CC(C)=C[C@@]5(O[C@H](C[C@@](C)(O)C(=O)O)CC[C@H]5O)O4)O3)CC[C@H]2O[C@@H]1[C@@H](O)C[C@H](C)[C@H]1O[C@@]2(CCCCO2)CC[C@H]1C [okadaic acid]
[4]; 3 h and 6 h
  impedimetric effect of okadaic acid incubation: Hyper-tau mutant specific degenerative effect
[4]; after 24 h
  impedimetric effect of okadaic acid incubation: massive cell damage in all tau mutants

## Hyper-tau: 5× polymutant tauK257T/ΔK280/P301L/V337M/R406W, SEQ ID NO:3
[5]
  MC1-detected misfolded tau species: abnormally conformed, misfolded tau species
[6]
  relative impedance of tau variant expressing cells: still more substantial decrease of relative impedance
[7]
  formation of abnormal tau aggregates: formation of abnormal tau aggregates

## K257Tq: 4× polymutant tauK257T/P301L/V337M/R406W
[6]
  relative impedance of tau variant expressing cells: lower impedance values

## P301L: single mutant tau (P301L)
[6]
  relative impedance of tau variant expressing cells: same impedimetric characteristic like the wildtype tau expressing cells
